From a melting point compilation (Tetko et al.; mined from patent text by program, amines drawn as free bases though some values may be those of a salt)

Row | SMILES | melting point [°C]
1 | CCOC(=O)C1(Nc2nc(-c3ccc(Br)cc3)cs2)CC1 | 152 to 154
2 | O=C1c2ccccc2S(=O)(=O)N1CS(=O)(=O)c1c(Cl)cccc1Cl | 201 to 203
3 | COc1ccccc1-c1cccc(-n2cnc(-c3nc(C)no3)c2)c1 | 97.1 to 101
4 | COc1ccc(CC(C)NC(=O)N(C)O)cc1OC (stereo unspecified) | 78 to 80
5 | Cc1cc2c(Cl)cc(F)c(-c3ccc(C(F)(F)F)n(C)c3=O)c2o1 | 138 to 140
6 | CCOC(=O)c1cc(C(C)=O)on1 | 67 to 68
7 | NS(=O)(=O)c1ccc(-c2cscc2-c2ccc(F)cc2)cc1 | 194 to 195
8 | C=CCNC(=NC#N)Nc1ccc(C2=NNC(=O)CC2C)cc1 (stereo unspecified) | 224 to 226
9 | Nc1cccc(-n2c(=O)c(Cc3cccnc3)nc3cccnc32)c1 | 168 to 170
10 | CCCCc1nn(-c2cc(NC(=O)CC)ccc2Br)c(=O)n1Cc1ccc(-c2ccccc2S(=O)(=O)NC(=O)OC(C)(C)C)cc1F | 123 to 126
11 | NCCCOc1ccc(OCc2ccccc2)cc1 | 115
12 | CC12C=CC(=O)C=C1CCC1C2CCC2(C)C1CCC21CC(=O)CO1 (stereo unspecified) | 147 to 153
13 | N#Cc1cccc2[nH]ccc12 | 115 to 116
14 | O=C(c1ccn2c1CSC2c1cccnc1)c1c[nH]c2cc(Br)ccc12 (stereo unspecified) | 265
15 | CCN1C(=O)C(C)(C)C(=O)N(C)c2cc(CN(CCn3ccc4oc(C)cc4c3=O)Cc3cccc4c3OCO4)ccc21 | 136 to 138
16 | CCCOc1cc(C(=O)O)cc(N)c1Cc1ccccc1 | 161 to 162
17 | Nc1c(SC(F)(F)F)cnn1-c1c(Cl)cc(C(F)(F)F)cc1Cl | 113 to 117
18 | Nc1ccc(-c2cccc([N+](=O)[O-])c2)cc1O | 175 to 176
19 | CCCc1c(OCCCCC(=O)O)ccc(C(C)=O)c1O | 97 to 102
20 | Nc1ccc(Oc2ncnc(Oc3ccccc3Cl)c2F)c(Cl)c1Cl | 162 to 163
21 | O=C(O)c1cc2cc(Cl)ccc2nc1N[C@@H](Cc1ccc(Cl)cc1)C(=O)O | 163 to 168
22 | CCCCCCOC(=O)NCc1ccc2c(c1)C(=O)N(C1CCC(=O)NC1=O)C2=O (stereo unspecified) | 111 to 113
23 | CN(C)C(=O)c1c(-c2ccccc2F)ccc2ccccc12 | 105 to 106
24 | CC(C)NCC(O)COc1ccc(NC(=O)N(C)C)cc1Cl (stereo unspecified) | 130
25 | O=c1nc(-c2ccccc2F)c2c3c(sc2[nH]1)CCCC3 | 274 to 277
26 | COC(=O)CCC(=O)c1ccc(-c2ccc(C)cc2)cc1 | 121 to 122

Row | SMILES | melting point [°C]
27 | COCCc1c[nH]c(-c2ccc(OCc3ccccc3)cc2)n1 | 154 to 156
28 | CN(C)n1cc(C(=O)NCc2ccc(Cl)cc2)c(=O)c2cc(C#CCO)ccc21 | 210 to 214
29 | Cc1cc(-c2ccc(S(N)(=O)=O)cc2)n(-c2ccc(F)cc2)c1 | 126 to 127
30 | CS(=O)(=O)C(=C1CN(C(c2ccccc2)c2ccccc2)C1)c1ccc(Cl)cc1Cl | 165
31 | Cc1nc(Nc2ccc(Cl)cc2)sc1C(=O)O | > 250
32 | C=CC(=O)OCCCCCCCCOc1ccc(C(=O)Oc2ccc(C=O)cc2)cc1 | 73
33 | CCc1c(C)[nH]c2cc(OCCOc3ccccc3)c(Cl)cc2c1=O | 290 to 292
34 | CSC(=S)Nc1ccc2c(c1)OCO2 | 114 to 115
35 | O=C(O)CCCC(=O)CNC(=O)c1csc(NC(=O)NCc2ccccc2)n1 | 169
36 | COc1ccc(-c2ccccc2-c2ccc(S(C)(=O)=O)cc2)cc1Cl | 162
37 | CS(=O)CC(=NC1CCCCC1)c1cc2ccccc2cc1O (stereo unspecified) | 132 to 136
38 | COc1ccccc1C(N)=CC#N | 74 to 75
39 | O=C(Nc1cccc(S(=O)(=O)NC2CC2)c1)c1cnn2c(C(F)F)cc(-c3ccc(Cl)c(Cl)c3)nc12 | 254
40 | CCNC(=O)NC1(c2ccc(C(C)C)cc2OC)C(=O)c2ccccc2C1=O | 267 to 269
41 | CCOC(=O)Cc1cccc(C(=O)c2ccccc2)c1N | 77 to 78
42 | CCCCCCCCCCCCCCC(=S)NCCCN1CCOCC1 | 46
43 | COCCNc1ccc(S(=O)(=O)Oc2ccc(N)c([N+](=O)[O-])c2)cc1 | 105
44 | C[C@@H]1O[C@@]1(Cn1cncn1)c1ccc(F)cc1F (racemic) | 66 to 68
45 | COc1ccc(C(=O)c2cc3cc(OC)ccc3[nH]2)cc1 | 155 to 158
46 | CSC1NC(=O)N(c2ccc(C)cc2)C(=O)N1N=C(C)C (stereo unspecified) | 170 to 173
47 | OC(CCc1cccnc1)CSc1ccc2ccccc2c1 (stereo unspecified) | 90 to 92
48 | CCOC(=O)c1cnc2ccc3nc(Cl)sc3c2c1O | > 300
49 | N#Cc1ccc2c(c1)S(=O)(=O)c1ccccc1C=C2 | 229 to 231
50 | COc1cc(Cc2cnc(NC(=O)C(C)(C)C)nc2NC(=O)C(C)(C)C)c(C=O)c(OC)c1OC | 162 to 163
51 | O=S(=O)(Nc1cccc(Oc2cccc3cccnc23)c1)c1ccc(Cl)cc1 | 190 to 191
52 | O=C(C=Cc1ccc(OCc2ccccc2)c([N+](=O)[O-])c1)N1CCCCC1 | 155 to 156

Row | SMILES | melting point [°C]
53 | COc1ccc(C=NO)c(OC)c1C | 110 to 111
54 | CNC(=O)c1ccc2c(c1)CCOC2CCN1CCN(c2ccc(OC)cc2)CC1 (stereo unspecified) | 174 to 176
55 | CCCCc1nc2cc(C(=O)OC)ccc2n1Cc1ccc(-c2ccccc2-c2nnn[nH]2)cc1 | 134 to 136
56 | CCn1c(=O)c2c(nc(/C=C/c3cc(OC)c(OC(C)=O)c(OC)c3)n2C)n(CC)c1=O | 248 to 249
57 | CC(C)c1cccc(C(C)C)c1NC(=O)C(C)(C)CCCOc1ccc2c(c1)C=C(c1nccn1C)C(CCc1ccccc1)O2 (racemic) | 108 to 110
58 | Cc1c(C)c2c(c(C)c1NC(=O)CC(C)(C)C)C(O)(c1ccccn1)C(C)(C)O2 (stereo unspecified) | 205 to 207
59 | COc1ccc(N2CCN(c3c(C)c(C)c4c(c3C)CC(C)(CO)O4)CC2)cc1 (stereo unspecified) | 137 to 139
60 | CCOC(=O)c1cc2cc(C)c(C(F)(F)F)cc2[nH]1 | 176 to 178
61 | Cc1ccc(-n2c(=O)n(O)c(=O)c3cc(F)c(N4CCCC4)nc32)cc1 | 228 to 230
62 | CC(C)CCSC1C(O)C(CO)OC1n1ccc(=O)[nH]c1=O (stereo unspecified) | 66 to 67
63 | CCCCn1sc2nc3ccccc3n2c1=O | 153 to 154
64 | Nc1ccc(Oc2cccc(C(F)(F)F)c2Cl)cc1 | 65 to 66.5
65 | COc1cc(CO)c(-n2cccc2)cc1OC | 92 to 93
66 | COC(=O)c1ccc(-c2n[nH]c(-c3ccccc3)n2)cc1 | 243 to 244
67 | O=C1CCC(c2ccc(OCC3CO3)c3ccccc23)=NN1 (stereo unspecified) | 151 to 155
68 | COC(=O)/C=C(/C#Cc1ccccc1)c1ccccc1 | 73 to 75
69 | COCCOc1ccc(/C=C/COC(=O)NS(=O)(=O)NCCc2ccccc2)c(Oc2ncc(C(F)(F)F)cc2Cl)c1 | 113 to 114
70 | CCn1c(N)c(C(=O)NC)c(=O)c2cnc(-c3ccc(NC(=O)NCc4cccnc4)cc3)nc21 | 250
71 | CCOC(=O)C1=C(CS(=O)(=O)c2ccccc2)Nc2ccnc(OC(C)C)c2C1c1ccccc1C(F)(F)F (stereo unspecified) | 177 to 182
72 | CCCc1cccc2c(C=O)cc(OC)c(O)c12 | 128 to 129
73 | C[C@@H]1OC(P(=O)(O)O)=CC[C@@]1(O)n1cnc2c(N)ncnc21 | 151
74 | CCN(CC)C(=O)c1cc2ccccc2c(-c2ccc(Cl)cc2)n1 | 122
75 | O=C(O)c1cn(C2CC2)c2c(F)c(N3CCC(O)C3)c(F)cc2c1=O (stereo unspecified) | 276 to 278
76 | CC(C)(C)OC(=O)N1CCC(Nc2nc3ccccc3n2Cc2cnc(CO)o2)CC1 | 132
77 | CC1(C)c2cc(NS(C)(=O)=O)ccc2CC2C1CCCN2CC1CCCCC1 (stereo unspecified) | 214 to 217
78 | O=S(=O)(c1ccccc1)N1CCCCC1CSc1ccc(Cl)cc1 (stereo unspecified) | 78.5 to 80

Row | SMILES | melting point [°C]
79 | Cc1c(O)ccc(-c2ccc(C#N)cc2)c1C | 174 to 176
80 | COC(=O)c1cc(C(C)Br)cnc1C1=NC(C)(C(C)C)C(=O)N1 (stereo unspecified) | 123 to 126
81 | Oc1cccc(-c2nc3n(n2)CCc2ccccc2-3)c1 | 201 to 202
82 | Cc1oc(-c2ccccc2)nc1COc1ccc(COc2ncccc2C=CC(=O)O)cc1 | 174 to 175
83 | COc1cc(C2C3=C(COC3=O)Nc3ccc4nn[nH]c4c32)cc(OC)c1OC (stereo unspecified) | 324 to 325
84 | N#Cc1ccc2c(c1-c1c(C#N)ccc3c1OCO3)OCO2 | 213 to 215
85 | Cc1c(NC(=O)c2ccc(OCCCCF)cc2F)ccc2cc(CN3CCCC3)cnc12 | 140
86 | O=c1oc2c(c(O)c1C(c1ccccc1)C1CC1)CCCCC2Cc1ccccc1 (stereo unspecified) | 178 to 182
87 | CCc1ccccc1C(N)=NO | 54 to 55
88 | COc1cc(Nc2c(C#N)cnc3c2C=C2N=C(NCCN4CCOCC4)N=C2C3)cc(OC)c1OC | 175 to 178
89 | C=CCCOc1cc2c(c(Cl)c1Cl)C(=O)C(C)(C1CCCC1)C2 (stereo unspecified) | 63 to 65
90 | C=CCOc1ccc(C#N)c(O)c1 | 134 to 136
91 | COCc1cccc(C(=O)c2nc(OC)cc(OC)n2)c1[N+](=O)[O-] | 111 to 113
92 | O=S(c1ccc(-n2cnnn2)cc1)C(F)F (stereo unspecified) | 109 to 112
93 | CC(=O)N=c1sc(C)cn1CC(=O)c1cccs1 | 187 to 188
94 | Cc1cc(-c2cnn3c(C(F)(F)F)cc(-c4ccc(Cl)c(C)c4)nc23)cc(C)n1 | 254
95 | COc1cc(C=CC(=O)c2ccc(O)c(OC)c2)ccc1O | 111 to 114
96 | CC(C)=C(C=O)CC(=O)O | 102
97 | Cc1cccc(-n2nc(C)c3c(Cl)c4ccccc4nc32)n1 | 154
98 | COC1=CC(=O)c2c(c(CO)cn2C)C1=O | 182 to 184
99 | CC(C)(C)c1cc(-c2csc(C3(N4CCOCC4)CCOCC3)n2)cc(C(C)(C)C)c1O | 172 to 174
100 | CCOC(=O)C1=C(C)NC(C)=C(C(=O)OCCN2CCN(C(c3ccccc3)c3ccccc3)CC2)C1c1cccc(Cl)c1Cl (stereo unspecified) | 87 to 89
101 | c1ccc(CC2CNCCN2)cc1 (racemic) | 80 to 81
